From patent US12433908B2, “Use of nicotinamide riboside, nicotinic acid riboside, and nicotinamide mononucleotide, reduced nicotinyl compounds, and nicotinoyl compound derivatives in infant formula for healthy development” (ChromaDex, Inc., priority 2016, dated 2025)

Assays:
[1] = Blood chemistry analysis of piglets given NR solution; type: in vivo, piglets (Yorkshire/Hampshire crossbred)
Source text: Sixteen (n=16) Yorkshire/Hampshire crossbred piglets were obtained from the University of California, Davis Swine Teaching and Research Center and received on lactation day (“LD”) 14. Prior to arrive, the piglets were processed by the suppler between 1-3 days of age by administration of iron and an antibiotic ([…] for swine) as is common practice at the University of California, Davis Swine Facility. It is not common practice at the University of California, Davis Swine Facility to give a second dose of iron and antibiotics unless it becomes necessary. The piglets were from two litters (litters 15 and 17), weaned at 17 days of age, and randomly placed into one of two groups balanced for litter, sex, and weight. The animals were not acclimated to the facility at arrival and were subsequently acclimated to the test diet administration system. The piglets were weaned into a temperature-controlled room (approximately 27-29° C.) that contained 10 adjacent pens. The piglets were group-housed in the nursery room at the Swine Facility, which is an enclosed room with access restricted to trained personnel. The two groups were separated by one pen containing piglets of similar age. Each morning enough nicotinamide riboside (NR, I) in water solution was prepared for that day's dose administration according to the dose preparation protocol. At least 5 mL of prepared dose was reserved and immediately frozen after preparation each day for analysis of nicotinamide riboside (NR, I) for the purpose of confirming stability of the dose material. The doses were stored at refrigeration temperature while not in use. Nicotinamide riboside (NR, I) was dosed once per day in the morning and at the same time each day. Piglets in the control group received the same volume of plain water and were dosed on the same schedule. Starting on Day 1, animals in the nicotinamide riboside (NR, I) group were dosed once daily (in the morning) with 277 mg nicotinamide riboside (NR, I) per pig resuspended in water for seven days. After one week, animals were dosed once daily with 342 mg nicotinamide riboside (NR, I) per pig delivered in 2.5 mL for seven days. For Days 1 and 2, the nicotinamide riboside (NR, I) solution was prepared by resuspending 2770 mg nicotinamide riboside (NR, I) in 50 mL water, and 5 mL of this solution was delivered to each pig by squirting it into the back of the mouth using a 10 mL syringe with a piece of tubing attached to the end. To reduce the volume to more efficiently deliver the nicotinamide riboside (NR, I) solution, the 2770 mg was resuspended in 25 mL water and 2.5 mL of the solution was squirted into the back of the mouth of each pig using a 3 mL syringe for Days 3-7. For Days 8-14, 3420 mg nicotinamide riboside (NR, I) was resuspended in 25 mL water and 2.5 mL of this solution was delivered to each pig. Each day prior to dosing, 2.5 mL of the nicotinamide riboside (NR, I) (5 mL on Days 1 and 2) were placed into a separate tube and frozen. Blood was collected from each pig via jugular venipuncture on Days 1, 8, and 14. In each instance, blood was collected prior to dosing with nicotinamide riboside (NR, I). On Day 1, the sow was removed from the piglets for approximately three hours prior to sample collection. On Days 8 and 14, feed was removed from the animals' pens 12 hours prior to sample collection. Blood was collected into purple-top vacutainers for CBC analysis and into red-top vacutainers for blood chemistry analysis. CBC analysis was performed at IDEXX Laboratories in West Sacramento, California using the Sysmex XT-iV Vet Hematology Autoanalyzer (Sysmex America Inc., Lincolnshire, Illinois). Red-top tubes were spun to collect serum and the serum frozen. Frozen aliquots (500 μL) were submitted to the University of California, Davis Veterinary medicine Teaching Hospital Clinical Diagnostic Laboratory for Blood Chemistry Analysis using the Cobas 6000 C501 Clinical Chemistry Analyzer (Roche Diagnostics, Indianapolis, IN). […]

[2] = mice on a high-fat diet supplemented with NR; cited from earlier work
[3] = Wk 1, 277 mg/pig once daily oral
[4] = Wk 2, 342 mg/pig once daily oral Days 8-14

Albumin ([1]; Baseline, before dosing): 3.74 g/dL
Alkaline Phosphatase ([1]; Baseline, before dosing): 720 U/L
Anion Gap ([1]; Baseline, before dosing): 26.7 mmol/L
BUN ([1]; Baseline, before dosing): 5.8 mg/dL
Bicarbonate ([1]; Baseline, before dosing): 19.4 mmol/L
Bilirubin Total ([1]; Baseline, before dosing): 0.40 mg/dL
Calcium ([1]; Baseline, before dosing): 10.6 mg/dL
Chloride ([1]; Baseline, before dosing): 100.3 mmol/L
Creatine Kinase ([1]; Baseline, before dosing): 1.30 ×10^3 U/L
Creatinine ([1]; Baseline, before dosing): 0.94 mg/dL
GGT ([1]; Baseline, before dosing): 43.8 U/L
Globulin ([1]; Baseline, before dosing): 0.86 g/dL
Glucose ([1]; Baseline, before dosing): 117.8 mg/dL
Phosphorus ([1]; Baseline, before dosing): 9.9 mg/dL
Potassium ([1]; Baseline, before dosing): 4.50 mmol/L
Sodium ([1]; Baseline, before dosing): 141.9 mmol/L
Total Protein ([1]; Baseline, before dosing): 4.59 g/dL
Albumin [1, 3]: 3.43 g/dL
Alkaline Phosphatase [1, 3]: 326 U/L
Anion Gap [1, 3]: 21.1 mmol/L
BUN [1, 3]: 10.9 mg/dL
Bicarbonate [1, 3]: 20.1 mmol/L
Bilirubin Total [1, 3]: 0.40 mg/dL
Calcium [1, 3]: 9.0 mg/dL
Chloride [1, 3]: 96.1 mmol/L
Creatine Kinase [1, 3]: 0.88 ×10^3 U/L
Creatinine [1, 3]: 1.07 mg/dL
GGT [1, 3]: 41.4 U/L
Globulin [1, 3]: 0.97 g/dL
Glucose [1, 3]: 99.7 mg/dL
Phosphorus [1, 3]: 6.5 mg/dL
Potassium [1, 3]: 4.27 mmol/L
Sodium [1, 3]: 133.1 mmol/L
Total Protein [1, 3]: 4.40 g/dL
Albumin [1, 4]: 3.29 g/dL
Alkaline Phosphatase [1, 4]: 285 U/L
Anion Gap [1, 4]: 20.4 mmol/L
BUN [1, 4]: 8.6 mg/dL
Bicarbonate [1, 4]: 23.7 mmol/L
Bilirubin Total [1, 4]: 0.27 mg/dL
Calcium [1, 4]: 9.8 mg/dL
Chloride [1, 4]: 97.1 mmol/L
Creatine Kinase [1, 4]: 0.55 ×10^3 U/L
Creatinine [1, 4]: 0.80 mg/dL
GGT [1, 4]: 42.6 U/L
Globulin [1, 4]: 1.20 g/dL
Glucose [1, 4]: 77.1 mg/dL
Phosphorus [1, 4]: 7.5 mg/dL
Potassium [1, 4]: 4.10 mmol/L
Sodium [1, 4]: 137.3 mmol/L
Total Protein [1, 4]: 4.49 g/dL
Structure (SMILES): NC(=O)c1ccc[n+]([C@@H]2O[C@H](CO)[C@@H](O)[C@H]2O)c1 [NR, Nicotinamide riboside]
AST ([1]; Baseline, before dosing): 45.5 U/L
AST [1, 3]: 50.6 U/L
AST [1, 4]: 36.7 U/L
less weight gained on a high-fat diet [2]: 40%
